# From patent publication US20210121438A1, “METHODS FOR TREATING OR PREVENTING CONFORMATION DISEASES AND METHODS FOR DRUG SCREENING” (GARAGE BRAIN SCIENCE CO., LTD, priority 2018, published 2021)
# What was measured:
# [1] = tested on: GFP-TDP-43-IIPLD inclusion-expressing 293T cells; assay: TDP-43-IIPLD misfolded aggregates in transfected 293T cells (microscopy); format: cell-based
# Protocol: Cell Culture and Drug Treatment: 293T cells were used throughout the experimental studies. 293T cells were grown in Dulbecco's modified Eagle's medium (DMEM)/F12, which was supplemented with 10% fetal bovine serum, 1% penicillin/streptomycin and 1% L-glutamate. Primary cultures of rat hippocampal neurons were prepared from embryonic day 17 rat embryos as previously described by (Wang et al, TDP-43, the signature protein of FTLD-U, is a neuronal activity-responsive factor. J. Neurochem. 105, 79T-806 (2008)). All procedures for handling the rat were carried out in accordance with the guidelines approved by the Institutional Animal Care and Utilization Committee, Academia Sinica. Hippocampal cells were plated on poly-1-lysine-coated coverslides at low density (10,000 cells per cm2) and cultured in the neurobasal medium/B27 (Invitrogen). The 293T cells were transfected using the calcium phosphate protocol according to the manufacturer's instructions and as previously described by Wang et al. (Wang et al., ProcNatlAcadSci USA. 99, 13583-13588 (2002). All of the plasmid constructs were described in Wang et al., Nature Communication, 2012). 293T cells (1×10^5) were seeded in each well of a six-well plate and incubated overnight in a 37° C. incubator with 5% CO2. To determine the effects of off-pathway stabilizers on the reduction of pathological-like aggregates, the cells were treated with baicalein and EGCG for 12, 24, or 48 h with the indicated concentrations (25 or 50 μM).
# GFP-TDP-43 pathological-like (GFP-TDP-43-IIPLD) inclusion-expressing 293T cells were treated with or without 50 μM baicalein for 12 h following microscopic analysis and Western blotting validation. […] (FIG. 2c).
# TDP-43 polymers = biological target: T1, TDP-43 polymers (Homo sapiens, UniProt Q13148); assay: Western blotting of TDP-43 polymers in nuclear, cytosolic and urea fractions; format: cell-based
# T1 construct: endogenous in cells; host or cells: 293T
# Protocol: Solubility Assay of TDP-43 and p53: Cells with or without transfection of TDP-43-FL or TDP-43-Q303P were lysed with RIPA buffer (50 mM Tris, 150 mM NaCl, 1 mM EDTA, 1% NP-40, pH 7.4), and the lysate was further fractionated by centrifugation at 16,000 g for 5 min at 4° C. The insoluble pellets were then dissolved in 8 M urea/50 mM Tris (pH 8.0). The proteins were identified by Western blotting using a polyclonal TDP-43 antibody or a monoclonal p53 antibody.
# TDP-43 proteinopathies in FTLD/ALS with the VCP/97 mutation R155H have been characterized. The VCP/97 mutation R155H alters the functions of VCP/97, redistributes TDP-43 to the cytosol, and leads to form-insoluble aggregates of TDP-43.
# [2] = biological target: T2, full-length TDP-43 recombinant protein (Homo sapiens, UniProt Q13148); assay: In vitro analysis of TDP-43 fiber formation (negative staining electron microscopy); format: biochemical
# T2 construct: Three-micromolar full-length TDP-43 recombinant protein (GenWay); purchased GenWay
# [3] = tested on: NSC34 cells expressing SMNA7; assay: Axon/neurite length of NSC34 motor neurons expressing SMNA7; format: cell-based; conditions: NSC34 cells expressing SMNA7, baicalein 50 μM
# Excerpt: (§1) We investigate whether baicalein can act as a pharmacological chaperone to refold misfolded SMNA7 into a functional prion-like domain, as shown in FIG. 8 (FIG. 10a). […] PFN1 is a known SMN interactor in the cytosol. We further examined whether baicalein attenuated the degradation of the SMNA7 protein. […] We found baicalein increased the length of axons from NSC34 cells expressing SMNA7 by approximately 2-fold (FIG. 10g).
# We increased the amount of functional prion-like domains by overexpressing the TDP-43 prion-like domain (TDP-43-PLD) in NSC34 motor neuron cells expressing the SMNA7 proteins to confirm that the reduced level of the functional prion-like conformer caused axon degeneration in SMNΔ7-expressing neurons. The TDP-43-PLD is expected to adopt a common, structurally similar β sheet to compensate for the prion-like function of SMN through hetero-polymerization. […] Thus, the level of the prion-like conformer is critical for motor neuron survival, and other functionally unrelated prion-like proteins can compensate for the function of the defective protein.
# [4] = tested on: progeria-expressing cells; assay: Nuclear shape in progeria-expressing cells (anti-lamin A/C immunostaining); format: cell-based; conditions: progeria-expressing cells (HGPS model)
# [5] = tested on: p53 aggregates in 293T cells; assay: p53 aggregates in 293T cells / p53 strains (immunofluorescence with p53 antibody); format: cell-based; conditions: 293T cells
# Protocol: Immunohistochemistry: Fluorescence staining was performed as described previously (Wang et al., 2012). Cells were transfected with or without plasmids or siRNAs and grown for 24 to 48 hr. Cells were fixed with 3.7% paraformaldehyde in PBS at RT for 15 min and then permeabilized with 0.1% Triton X-100. The fixed cells were incubated with primary antibodies at RT for 2 hr followed by incubation with Cy2- or Cy3-labeled secondary antibodies (Molecular Probes). Slides were mounted using Vectashield DAPI H-1200 (Vector). Cellular fluorescence images were collected using an LSM710 META laser-scanning confocal microscope (Zeiss).
# We observed a striking degree of heterogeneity among p53 aggregates in the cytosol of 293T cells by immunofluorescence with a p53 antibody, including long fibers (5-10 μm), short fibers (1.6-3.2 μm) and punctate aggregates (0.5-1 μm in diameter) (FIG. 16a, arrows). The length of the p53 fibers and p53 aggregates were analyzed (FIG. 16b). […] To determine whether these heterogeneous p53 amyloid patterns are inherited or are random conversions, we subcultured and isolated single colonies from heterogeneous pools of cells. […] We obtained four phenotypes shown in FIG. 16a, including long and short fibers, puncta, and diffuse nuclear staining, and these phenotypes were stably propagated (FIG. 16e). We termed these p53 phenotypes of the isolated strains as follows: p53 [L] (Long fibers), p53 [S] (Short fibers), p53 [P] (Puncta) and p53-NVA (No Visible Aggregates).
# Additionally, we treated 293T cells with an Aβ amyloid disassembling agent, baicalein, following immunofluorescence staining with anti-p53 antibodies.
# [6] = tested on: SMNA7 aggregates in 293T cells; assay: SMNA7 aggregate formation in 293T cells; format: cell-based
# Excerpt: as §1
# T1 sequence (Q13148 whole entry): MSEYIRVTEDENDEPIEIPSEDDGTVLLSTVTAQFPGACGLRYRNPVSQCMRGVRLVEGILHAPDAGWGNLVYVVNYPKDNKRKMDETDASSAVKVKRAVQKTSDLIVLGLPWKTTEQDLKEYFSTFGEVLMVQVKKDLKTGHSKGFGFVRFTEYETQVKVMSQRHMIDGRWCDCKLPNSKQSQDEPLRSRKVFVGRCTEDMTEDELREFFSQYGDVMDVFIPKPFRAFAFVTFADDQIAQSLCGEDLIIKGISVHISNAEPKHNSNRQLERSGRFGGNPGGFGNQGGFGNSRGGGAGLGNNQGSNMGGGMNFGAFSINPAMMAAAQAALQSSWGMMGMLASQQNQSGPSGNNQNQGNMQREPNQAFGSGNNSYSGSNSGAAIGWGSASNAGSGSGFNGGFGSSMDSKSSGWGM
# T2 sequence (Q13148 whole entry): as above
smiles,measurement,setting,value
O=c1cc(-c2ccccc2)oc2cc(O)c(O)c(O)c12 [baicalein],"TDP-43-IIPLD aggregates, statistical analysis of dose dependence",[1],dosage-dependent reduction of TDP-43-IIPLD aggregates
same,assembly of TDP-43-IIPLD proteinaceous nucleating particles,[1]; 50 μM,inhibited the assembly of TDP-43-IIPLD proteinaceous nucleating particles
same,TDP-43 polymers in nuclear fraction,"TDP-43 polymers; 293T cells, 0, 25 or 50 μM baicalein",compensatory increase in the nuclear fraction
same,TDP-43 polymers,TDP-43 polymers; baicalein-treated VCP/p97 R155H cells,increased TDP-43 polymers
same,length of baicalein-inducing TDP-43 polymers,"[2]; 3 μM TDP-43 with 3 μM baicalein, RT, agitation, 30-90 min, fibers without compound 3 to 10 μm",0.15-0.9 μm
same,"remodeling of TDP-43 fibers, oligomers or natively unfolded monomers","[2]; equimolar baicalein, time-dependent",efficiently remodeled into ordered TDP-43 polymers
same,increase of length of axons,[3],approximately 2 fold
same,nuclear shape defects,[4],corrected nuclear shape defects in HGPS
same,p53 misfolded aggregates,[5]; 25 μM baicalein,reduced p53 misfolded aggregates
same,spontaneous aggregation of p53,[5]; baicalein,suppressed the spontaneous aggregation of p53
same,formation of SMNA7 aggregates,[6],decreased the formation of SMNA7 aggregates in 293T cells in a dose-dependent manner
